Test results from patent US20250051347A1, “BIFUNCTIONAL CHIMERIC HETEROCYCLIC COMPOUND AND USE THEREOF AS ANDROGEN RECEPTOR DEGRADER” (Hinova Pharmaceuticals, Inc., priority 2021, published 2025).

The molecules below were run against T1, androgen receptor (AR) splicing variant AR-v7 (Homo sapiens, UniProt P10275) (assay: Degradation activity on androgen receptor splicing variant AR-v7 in 22RV1 cells (ELISA)). Conditions: AR-v7 degradation in 22RV1 cells, 48 h, class symbols.
T1 construct: The degradation activity of compounds on AR-v7 in 22RV1 cells; host or cells: 22RV1 cells
T1 sequence (P10275 1-644 isoform P10275-3): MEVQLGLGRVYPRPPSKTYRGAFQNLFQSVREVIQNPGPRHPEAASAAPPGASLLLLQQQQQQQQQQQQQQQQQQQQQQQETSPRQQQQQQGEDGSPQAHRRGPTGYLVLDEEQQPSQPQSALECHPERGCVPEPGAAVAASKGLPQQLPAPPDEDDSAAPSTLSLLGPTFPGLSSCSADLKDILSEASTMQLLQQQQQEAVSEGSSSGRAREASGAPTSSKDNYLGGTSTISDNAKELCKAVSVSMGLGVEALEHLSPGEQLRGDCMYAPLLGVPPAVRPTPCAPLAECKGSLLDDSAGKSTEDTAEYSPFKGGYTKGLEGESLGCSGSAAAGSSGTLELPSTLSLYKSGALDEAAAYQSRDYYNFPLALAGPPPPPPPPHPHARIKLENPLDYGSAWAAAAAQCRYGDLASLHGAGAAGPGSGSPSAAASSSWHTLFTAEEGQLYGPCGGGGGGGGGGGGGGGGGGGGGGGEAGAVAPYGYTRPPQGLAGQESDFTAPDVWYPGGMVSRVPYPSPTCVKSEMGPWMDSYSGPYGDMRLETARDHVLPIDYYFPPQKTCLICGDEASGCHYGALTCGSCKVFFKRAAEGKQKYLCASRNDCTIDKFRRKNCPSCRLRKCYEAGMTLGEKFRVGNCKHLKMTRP
Assay type: cell-based
`CC(=O)c1nccc(COc2ccc(C(C)(C)c3ccc(OC[C@H]4CC[C@H](Nc5ccc6c(c5)C(=O)N(C5CCC(=O)NC5=O)C6=O)CC4)cc3)cc2)n1` (stereo partly drawn) [Example 146] gave a DC50 of 1000 to 5000 nM.
`CC(COc1ccc(C(C)(C)c2ccc(OCc3ccnc(N4CC5(COC5)C4)n3)cc2)cc1)Nc1ccc2c(c1)C(=O)N(C1CCC(=O)NC1=O)C2=O` (stereo not drawn) [Example 151, 5-((1-(4-(2-(4-((2-(2-oxa-6-azaspiro[3.3]heptan-6-yl)pyrimidin-4-yl)methoxy)phenyl)propan-2-yl)phenoxy)propan-2-yl)amino)-2-(2,6-dioxopiperidin-3-yl)isoindolin-1,3-dione] was tested, and the DC50 was 11 to 100 nM.
With `Cn1cc(-c2ccc(Oc3ccc(C(C)(C)c4ccc(O[C@H]5C[C@H](Nc6ccc7c(c6)C(=O)N(C6CCC(=O)NC6=O)C7=O)C5)cc4)cc3)cn2)cn1` (stereo partly drawn) [Example 205] the DC50 was 11 to 100 nM.
Molecule `CC(=O)c1nccc(COc2ccc(C(C)(C)c3ccc(OC4CC5(C4)CN(c4ccc6c(c4)C(=O)N(C4CCC(=O)NC4=O)C6=O)C5)cc3)cc2)n1` (stereo not drawn) [Example 561] has a DC50 of 11 to 100 nM.
In the case of `CCNC(=O)c1nccc(COc2ccc(C(C)(C)c3ccc(OC4CC(Nc5ccc6c(c5)C(=O)N(C5CCC(=O)NC5=O)C6=O)C4)cc3)cc2)n1` (stereo not drawn) [Example 531], the DC50 is reported as 11 to 100 nM.
`CC(c1ccc(C(C)(C)c2ccc(OCc3ccnc(N4CC5(COC5)C4)n3)cc2)cc1)N1CC(Nc2ccc3c(c2)C(=O)N(C2CCC(=O)NC2=O)C3=O)C1` (stereo not drawn) [Example 505, 5-((1-(1-(4-(2-(4-(4-) 4-((2-(2-oxa-6-azaspiro[3.3]heptane-6-yl)pyrimidin-4-yl)methoxy)phenyl)propan-2-yl)phenyl)ethyl)azetidin-3-yl)amino)-2-(2,6-dioxopiperidin-3-yl)isoindolin-1,3-dione] showed a DC50 of 1000 to 5000 nM.
`CC(C)(c1ccc(OCCCN2CCN(CC3CCN(CC4CN(c5ccc6c(c5)C(=O)N(C5CCC(=O)NC5=O)C6=O)C4)CC3)CC2)cc1)c1ccc(OCc2ccnc(NS(C)(=O)=O)n2)cc1` (stereo not drawn) [Example 11, N-(4-((4-(2-(4-(3-(4-((1-((1-(2-(2,6-dioxopiperidin-3-yl)-1,3-dioxoisoindolin-5-yl)azetidin-3-yl)methyl)piperidin-4-yl)methyl)piperazin-1-yl)propoxy)phenyl)propan-2-yl)phenoxy)methyl)pyrimidin-2-yl)methanesulfonamide] showed a DC50 of 1000 to 5000 nM.
In the case of `COC(=O)c1ncc(Oc2ccc(C(C)(C)c3ccc(O[C@H]4C[C@H](Nc5ccc6c(c5)C(=O)N(C5CCC(=O)NC5=O)C6=O)C4)cc3)cc2)cn1` (stereo partly drawn) [Example 266, methyl 5-(4-(2-(4-((1r,3r)-3-((2-(2,6-dioxopiperidin-3-yl)-1,3-dioxoisoindolin-5-yl)amino)cyclobutyloxy)phenyl)propan-2-yl)phenoxy)pyrimidin-2-carboxylate], the DC50 is reported as 11 to 100 nM.
For `Cc1nc(-c2cc(Oc3ccc(C(C)(C)c4ccc(O[C@H]5C[C@H](Nc6ccc7c(c6)C(=O)N(C6CCC(=O)NC6=O)C7=O)C5)cc4)cc3)ccn2)no1` (stereo partly drawn) [Example 167, 2-(2,6-dioxopyridin-3-yl)-5-(((1r,3r)-3-(4-(2-((4-(2-(5-methyl-1,2,4-oxadiazol-3-yl)pyridin-4-yl)oxy)phenyl)propan-2-yl)phenoxy)cyclobutyl)amino) isoindolin-1,3-dione], the DC50 was 11 to 100 nM.
Molecule `CC(C)(c1ccc(OCc2ccnc(OC3CN(C4CC4)C3)n2)cc1)c1ccc(O[C@H]2C[C@@H](Nc3ccc4c(c3)C(=O)N(C3CCC(=O)NC3=O)C4=O)C2)cc1` (stereo partly drawn) [Example 467, 5-(((1s,3s)-3-(4-(2-(4-((2-((1-cyclopropylazetidin-3-yl)oxy)pyrimidin-4-yl)methoxy)phenyl)propan-2-yl)phenoxy)cyclobutyl)amino)-2-(2,6-dioxopiperidin-3-yl)isoindolin-1,3-dione] has a DC50 of 11 to 100 nM.
`CC(C)(c1ccc(OCCCNc2cccc3c2C(=O)N(C2CCC(=O)NC2=O)C3=O)cc1)c1ccc(OCc2cnc(N3CCOCC3)s2)cc1` (stereo not drawn) [Example 435, 2-(2,6-dioxopiperidin-3-yl)-4-((3-(4-(2-(4-((2-morpholinethiazol-5-yl)methoxy)phenyl)propan-2-yl)phenoxy)propyl)amino)isoindolin-1,3-dione] showed a DC50 of 1000 to 5000 nM.
For `CC(C)(c1ccc(Oc2cnc(CN3CC(F)(F)C3)nc2)cc1)c1ccc(OC2CC(Nc3ccc4c(c3)C(=O)N(C3CCC(=O)NC3=O)C4=O)C2)cc1` (stereo not drawn) [Example 479, 5-(((1r,3r)-3-(4-(2-(4-((2-((3,3-difluoroazetidin-1-yl)methyl)pyrimidin-5-yl)oxy)phenyl)propan-2-yl)phenoxy)cyclobutyl)amino)-2-(2,6-dioxopiperidin-3-yl)isoindolin-1,3-dione], the DC50 was 11 to 100 nM.
In the case of `CC(C)(c1ccc(OCc2ccnc(N3CC4(COC4)C3)n2)cc1)c1ccc(O[C@H]2C[C@@H](Nc3ccc4c(c3)C(=O)N(C3CCC(=O)NC3=O)C4)C2)cc1` (stereo partly drawn) [Example 92, 3-(6-(((1s,3s)-3-(4-(2-(4-((2-(2-oxa-6-azaspiro[3.3]heptane-6-yl)pyrimidin-4-yl)methoxy)phenyl)propan-2-yl)phenoxy)cyclobutyl)amino)-1-oxoisoindolin-2-yl)piperidin-2,6-dione], the DC50 is reported as 101 to 1000 nM.
In the case of `CC(C)(c1ccc(OCc2ccnc(N3CC4(COC4)C3)n2)cc1)c1ccc(O[C@]2(C)C[C@@H](Nc3ccc4c(c3)C(=O)N(C3CCC(=O)NC3=O)C4=O)C2)cc1` (stereo partly drawn) [Example 499, 5-((1r,3r)-3-(4-(2-(4-(4-((2-(2-oxa-6-azaspiro[3.3]heptane-6-yl)pyrimidin-4-yl)methoxy)phenyl)propan-2-yl)phenoxy)-3-methylcyclobutyl)amino)-2-(2,6-dioxopiperidin-3-yl)isoindolin-1,3-dione], the DC50 is reported as 11 to 100 nM.

Same assay, conditions: AR-v7 degradation in 22RV1 cells, 48 h, numeric values
Molecule `CC(C)(c1ccc(OCCCCCCCCN2CC3(C2)CN(c2ccc4c(c2)C(=O)N(C2CCC(=O)NC2=O)C4=O)C3)cc1)c1ccc(OCc2ccnc(NS(C)(=O)=O)n2)cc1` (stereo not drawn) [Example 30, N-(4-((4-(2-(4-((8-(6-(2-(2,6-dioxopiperidin-3-yl)-1,3-dioxoisoindolin-5-yl)-2,6-diazaspiro[3.3]heptan-2-yl)octyl)oxy)phenyl)propan-2-yl)phenoxy)methyl)pyrimidin-2-yl)methanesulfonamide] has a DC50 greater than 10000 nM.
`CC(C)(c1ccc(OCc2ccnc(NS(C)(=O)=O)n2)cc1)c1ccc(OCC2CCN(CCCOCCCCNc3ccc4c(c3)C(=O)N(C3CCC(=O)NC3=O)C4=O)CC2)cc1` (stereo not drawn) [Example 16] showed a DC50 greater than 10000 nM.
`CC(C)(c1ccc(OCCCCCCCOCCCN2CCN(c3ccc4c(c3)C(=O)N(C3CCC(=O)NC3=O)C4=O)CC2)cc1)c1ccc(OCc2ccnc(NS(C)(=O)=O)n2)cc1` (stereo not drawn) [Example 7, N-(4-((4-(2-(4-((7-(3-(4-(2-(2,6-dioxopiperidin-3-yl)-1,3-dioxoisoindolin-5-yl)piperazin-1-yl)propoxy)heptyl)oxy)phenyl)propan-2-yl)phenoxy)methyl)pyrimidin-2-yl)methanesulfonamide] was tested, and the DC50 was greater than 10000 nM.
With `CC(C)(c1ccc(OCCCCCOCCCOCC2CCN(c3ccc4c(c3)C(=O)N(C3CCC(=O)NC3=O)C4=O)C2)cc1)c1ccc(OCc2ccnc(NS(C)(=O)=O)n2)cc1` (stereo not drawn) [Example 52, N-(4-((4-(2-(4-((5-(3-((1-(2-(2,6-dioxopiperidin-3-yl)-1,3-dioxoisoindolin-5-yl)pyrrolidin-3-yl)methoxy)propoxy)pentyl)oxy)phenyl)propan-2-yl)phenoxy)methyl)pyrimidin-2-yl)methanesulfonamide] the DC50 was greater than 10000 nM.
